Data from ChEMBL document CHEMBL5365394, “Design, synthesis and biological evaluation of novel spiro-quinazolinone derivatives as chitin synthase inhibitors and antifungal agents” (Eur J Med Chem, 2023).
Values after ≈ are worked out from the molar mass of the structure shown. Active and inactive are the calls of the source. The rule behind the calls is not given here.

Tests used:
[1] = Inhibition of Saccharomyces cerevisiae CGMCC2.145 chitin synthase […] by TMB based microplate reader analysis
Aspergillus flavus [2] = experiment: Antifungal activity against Aspergillus flavus ATCC 16870 assessed as fungal growth inhibition incubated for 24 hrs by two-fold serial dilution method; assay type: functional
[3] = Cytotoxicity against human A549 cells assessed as cell viability at 64 ug/ml incubated for 24 hrs by CCK-8 assay relative to control; assay type: toxicity, cell-based; conditions: at 64 µg/mL, read-out: Activity
Candida albicans [4] = experiment: Antifungal activity against Fluconazole-resistant Candida albicans ATCC 76615R assessed as fungal growth inhibition; assay type: functional
Cryptococcus neoformans [5] = experiment: Synergistic antifungal activity against Cryptococcus neoformans ATCC 32719 assessed as fluconazole MIC incubated for 24 hrs in by checkerboard broth microdilution method; assay type: functional
Aspergillus fumigatus [6] = experiment: Antifungal activity against Aspergillus fumigatus GIMCC 3.19 assessed as inhibition of cell wall synthesis incubated for 24 hrs in absence of sorbitol; assay type: functional
[7] = Cytotoxicity against human A549 cells assessed as cell viability at 4 ug/ml incubated for 24 hrs by CCK-8 assay relative to control; assay type: toxicity, cell-based; conditions: at 4 µg/mL, read-out: Activity
Aspergillus fumigatus [8] = experiment: Synergistic antifungal activity against Aspergillus fumigatus GIMCC 3.19 assessed as fractional inhibitory concentration index incubated for 24 hrs in presence of fluconazole by checkerboard broth microdilution method; assay type: functional
Cryptococcus neoformans [9] = experiment: Antifungal activity against Cryptococcus neoformans ATCC 32719 assessed as inhibition of cell wall synthesis incubated for 24 hrs in absence of sorbitol; assay type: functional
A549 = experiment: Cytotoxicity against human A549 cells assessed as cell viability incubated for 24 hrs at 128 ug/ml by CCK-8 assay relative to control; conditions: dose 128 µg/ml
[10] = Inhibition of Candida tropicalis ATCC 750 chitin synthase using UDP-GlcNAc as substrate incubated for 1 hr by absorbance based assay
Aspergillus fumigatus [11] = experiment: Antifungal activity against Aspergillus fumigatus GIMCC 3.19 assessed as inhibition of cell wall synthesis incubated for 24 hrs in presence of sorbitol; assay type: functional
Cryptococcus neoformans [12] = experiment: Antifungal activity against Fluconazole-resistant Cryptococcus neoformans ATCC 32719R assessed as fungal growth inhibition; assay type: functional
Aspergillus flavus [13] = experiment: Antifungal activity against Aspergillus flavus ATCC 16870 assessed as inhibition of cell wall synthesis incubated for 24 hrs in absence of sorbitol; assay type: functional
[14] = Cytotoxicity against human A549 cells assessed as cell viability at 8 ug/ml incubated for 24 hrs by CCK-8 assay relative to control; assay type: toxicity, cell-based; conditions: at 8 µg/mL, read-out: Activity
Candida albicans [15] = experiment: Synergistic antifungal activity against Candida albicans ATCC 76615 assessed as polyoxin B MIC incubated for 24 hrs by checkerboard broth microdilution method; assay type: functional
Aspergillus flavus [16] = experiment: Synergistic antifungal activity against Aspergillus flavus ATCC 16870 assessed as fractional inhibitory concentration index incubated for 24 hrs in presence of fluconazole by checkerboard broth microdilution method; assay type: functional
Candida tropicalis [17] = experiment: Non competitive inhibition of Candida tropicalis ATCC 750 chitin synthase using UDP-GlcNAc as substrate assessed as decrease in Vmax with constant Km at 0.05 to 0.15 mM incubated for 1 hr by Michaelis-Menten analysis; conditions: dose 0.05-0.15 mM
Candida albicans [18] = experiment: Antifungal activity against Candida albicans ATCC 76615 assessed as fungal growth inhibition incubated for 24 hrs by two-fold serial dilution method; assay type: functional
Candida albicans [19] = experiment: Synergistic antifungal activity against Candida albicans ATCC 76615 assessed as fluconazole MIC incubated for 24 hrs in by checkerboard broth microdilution method; assay type: functional
Candida tropicalis [20] = experiment: Non competitive inhibition of Candida tropicalis ATCC 750 chitin synthase using UDP-GlcNAc as substrate assessed as Vmax at 0.05 to 0.15 mM incubated for 1 hr by Michaelis-Menten analysis; conditions: dose 0.05-0.15 mM
Candida tropicalis [21] = experiment: Non competitive inhibition of Candida tropicalis ATCC 750 chitin synthase using UDP-GlcNAc as substrate assessed as Km at 0.05 to 0.15 mM incubated for 1 hr by Michaelis-Menten analysis; conditions: dose 0.05-0.15 mM
Aspergillus fumigatus [22] = experiment: Synergistic antifungal activity against Aspergillus fumigatus GIMCC 3.19 assessed as fluconazole MIC incubated for 24 hrs in by checkerboard broth microdilution method; assay type: functional
Aspergillus fumigatus [23] = experiment: Antifungal activity against Aspergillus fumigatus GIMCC 3.19 assessed as fungal growth inhibition incubated for 24 hrs by two-fold serial dilution method; assay type: functional
Cryptococcus neoformans [24] = experiment: Synergistic antifungal activity against Cryptococcus neoformans ATCC 32719 assessed as polyoxin B MIC incubated for 24 hrs in by checkerboard broth microdilution method; assay type: functional
Aspergillus fumigatus [25] = experiment: Synergistic antifungal activity against Aspergillus fumigatus GIMCC 3.19 assessed as polyoxin B MIC incubated for 24 hrs by checkerboard broth microdilution method; assay type: functional
Candida albicans [26] = experiment: Antifungal activity against Micafungin-resistant Candida albicans ATCC 76615R assessed as fungal growth inhibition; assay type: functional
Aspergillus flavus [27] = experiment: Synergistic antifungal activity against Aspergillus flavus ATCC 16870 assessed as fluconazole MIC incubated for 24 hrs in by checkerboard broth microdilution method; assay type: functional
Aspergillus flavus [28] = experiment: Synergistic antifungal activity against Aspergillus flavus ATCC 16870 assessed as fractional inhibitory concentration index incubated for 24 hrs in presence of polyoxin B by checkerboard broth microdilution method; assay type: functional
Cryptococcus neoformans [29] = experiment: Synergistic antifungal activity against Cryptococcus neoformans ATCC 32719 assessed as fractional inhibitory concentration index incubated for 24 hrs in presence of polyoxin B by checkerboard broth microdilution method; assay type: functional
[30] = Cytotoxicity against human A549 cells assessed as cell viability at 32 ug/ml incubated for 24 hrs by CCK-8 assay relative to control; assay type: toxicity, cell-based; conditions: at 32 µg/mL, read-out: Activity
Aspergillus flavus [31] = experiment: Antifungal activity against Fluconazole-resistant Aspergillus flavus ATCC 16870R assessed as fungal growth inhibition; assay type: functional
[32] = Cytotoxicity against human A549 cells assessed as cell viability at 16 ug/ml incubated for 24 hrs by CCK-8 assay relative to control; assay type: toxicity, cell-based; conditions: at 16 µg/mL, read-out: Activity
Candida albicans [33] = experiment: Antifungal activity against Candida albicans ATCC 76615 assessed as inhibition of cell wall synthesis incubated for 24 hrs in absence of sorbitol; assay type: functional
Candida albicans [34] = experiment: Synergistic antifungal activity against Candida albicans ATCC 76615 assessed as fractional inhibitory concentration index incubated for 24 hrs in presence of fluconazole by checkerboard broth microdilution method; assay type: functional
Aspergillus flavus [35] = experiment: Synergistic antifungal activity against Aspergillus flavus ATCC 16870 assessed as polyoxin B MIC incubated for 24 hrs by checkerboard broth microdilution method; assay type: functional
Candida albicans [36] = experiment: Synergistic antifungal activity against Candida albicans ATCC 76615 assessed as fractional inhibitory concentration index incubated for 24 hrs in presence of polyoxin B by checkerboard broth microdilution method; assay type: functional
Cryptococcus neoformans [37] = experiment: Antifungal activity against Cryptococcus neoformans ATCC 32719 assessed as fungal growth inhibition incubated for 24 hrs by two-fold serial dilution method; assay type: functional
Aspergillus fumigatus [38] = experiment: Antifungal activity against Fluconazole-resistant Aspergillus fumigatus GIMCC 3.19R assessed as fungal growth inhibition; assay type: functional
Aspergillus flavus [39] = experiment: Antifungal activity against Aspergillus flavus ATCC 16870 assessed as inhibition of cell wall synthesis incubated for 24 hrs in presence of sorbitol; assay type: functional
Candida tropicalis [40] = experiment: Inhibition of Candida tropicalis ATCC 750 chitin synthase using […] as substrate at 300 ug/ml incubated for 1 hr by absorbance based assay relative to control; conditions: dose 300.0 µg/ml
Aspergillus fumigatus [41] = experiment: Synergistic antifungal activity against Aspergillus fumigatus GIMCC 3.19 assessed as fractional inhibitory concentration index incubated for 24 hrs in presence of polyoxin B by checkerboard broth microdilution method; assay type: functional
Cryptococcus neoformans [42] = experiment: Antifungal activity against Cryptococcus neoformans ATCC 32719 assessed as inhibition of cell wall synthesis incubated for 24 hrs in presence of sorbitol; assay type: functional
Candida albicans [43] = experiment: Antifungal activity against Candida albicans ATCC 76615 assessed as inhibition of cell wall synthesis incubated for 24 hrs in presence of sorbitol; assay type: functional
Cryptococcus neoformans [44] = experiment: Synergistic antifungal activity against Cryptococcus neoformans ATCC 32719 assessed as fractional inhibitory concentration index incubated for 24 hrs in presence of fluconazole by checkerboard broth microdilution method; assay type: functional
[45] = Non competitive inhibition of Candida tropicalis ATCC 750 chitin synthase using UDP-GlcNAc as substrate assessed as inhibition constant incubated for 1 hr by double reciprocal plot analysis

Structure (SMILES): O=C(Nc1cccc(C(F)(F)F)c1)C1CCN(CC(=O)N2CCC3(CCNC3=O)CC2)CC1
- IC50 [1]: 100 µM

Structure (SMILES): O=C(/C=C/C(=O)Nc1ccc2c(c1)C(=O)NC1(CCSC1)N2)Nc1ccc([N+](=O)[O-])cc1 (stereo unspecified)
- MIC (Aspergillus flavus [2]): 1 µg/mL (≈ 2.21 µM)
- viability at 24 h, 64 ug/ml [3]: 67.1%
- MIC (Candida albicans [4]): 8 µg/mL (≈ 17.6 µM)
- MIC (Cryptococcus neoformans [5]): 2 µg/mL
- MIC (Aspergillus fumigatus [6]): 8 µg/mL (≈ 17.6 µM)
- viability at 24 h, 4 ug/ml [7]: 95.1%
- fractional inhibitory concentration index (FICI) (Aspergillus fumigatus [8]): 0.75
- MIC (Cryptococcus neoformans [9]): 4 µg/mL (≈ 8.82 µM)
- viability (A549): 62.2%
- IC50 [10]: 107 µM
- MIC (Aspergillus fumigatus [11]): 128 µg/mL
- MIC (Cryptococcus neoformans [12]): 4 µg/mL (≈ 8.82 µM)
- MIC (Aspergillus flavus [13]): 4 µg/mL (≈ 8.82 µM)
- viability at 24 h, 8 ug/ml [14]: 94.3%
- MIC (Candida albicans [15]): 2 µg/mL
- fractional inhibitory concentration index (FICI) (Aspergillus flavus [16]): 0.5
- inhibition (Candida tropicalis [17]): Active
- MIC (Candida albicans [18]): 1 µg/mL (≈ 2.21 µM)
- MIC (Candida albicans [19]): 0.5 µg/mL
- Vmax (Candida tropicalis [20]): 1.21 deltaOD/hr
- Km (Candida tropicalis [21]): 5.18 mM
- MIC (Aspergillus fumigatus [22]): 4 µg/mL
- MIC (Aspergillus fumigatus [23]): 2 µg/mL (≈ 4.41 µM)
- MIC (Cryptococcus neoformans [24]): 4 µg/mL
- MIC (Aspergillus fumigatus [25]): 8 µg/mL
- MIC (Candida albicans [26]): 8 µg/mL (≈ 17.6 µM)
- MIC (Aspergillus flavus [27]): 1 µg/mL
- fractional inhibitory concentration index (FICI) (Aspergillus flavus [28]): 0.375
- fractional inhibitory concentration index (FICI) (Cryptococcus neoformans [29]): 0.75
- viability at 24 h, 32 ug/ml [30]: 87.8%
- MIC (Aspergillus flavus [31]): 8 µg/mL (≈ 17.6 µM)
- viability at 24 h, 16 ug/ml [32]: 94%
- MIC (Candida albicans [33]): 4 µg/mL (≈ 8.82 µM)
- fractional inhibitory concentration index (FICI) (Candida albicans [34]): 0.5
- MIC (Aspergillus flavus [35]): 2 µg/mL
- fractional inhibitory concentration index (FICI) (Candida albicans [36]): 0.75
- MIC (Cryptococcus neoformans [37]): 2 µg/mL (≈ 4.41 µM)
- MIC (Aspergillus fumigatus [38]): 8 µg/mL (≈ 17.6 µM)
- MIC (Aspergillus flavus [39]): 64 µg/mL
- inhibition (Candida tropicalis [40]): 82.3%
- fractional inhibitory concentration index (FICI) (Aspergillus fumigatus [41]): 1
- MIC (Cryptococcus neoformans [42]): 32 µg/mL
- MIC (Candida albicans [43]): 64 µg/mL
- fractional inhibitory concentration index (FICI) (Cryptococcus neoformans [44]): 1
- Ki [45]: 160 µM
